Laboratory results reported in US20240033207A1, “TOPICALLY ADMINISTRABLE LYSATE (LY) OF DEDIFFERENTIATED CELLS OF THE PLANT HELICHRYSUM STOECHAS FOR ELIMINATING OR REDUCING INFLAMMATION OF THE SKIN” (SOCIETE D'EXPLOITATION DE PRODUITS POUR LES INDUSTRIES …, priority 2020, published 2024).
Marks after values point to notes of the source that are not given here.

Test system: normal human keratinocytes (NHEK) cocultured with dendritic cells (DC)
Assay: Coculture of primary human keratinocytes with dendritic cells, PMA/A23187/PUFA stimulation, lipid mediators in supernatant by LC-MS/MS
Format: cell-based
Source text: Dendritic cells form part of the cells of the cutaneous immune system, and they are involved in the early inflammatory response. This model is targeted at mimicking the interactions which take place naturally in the skin between the keratinocytes and the cells of the immune system, and it makes it possible to evaluate the impact of active principles on the processes of resolution of inflammation. Briefly, normal human keratinocytes (NHEK) are inoculated in inserts and cultured without contact with dendritic cells (DC) inoculated in the bottom of the wells. The cells are pretreated with the composition CA or glycerol. After 20 hours of incubation, the inflammatory stimulus (mixture of phorbol 12-myristate 13-acetate (PMA) and of calcium ionophore A23187), polyunsaturated fatty acids (PUFAs, lipid precursors of inflammation mediators, eicosanoids) and the compounds (composition CA or glycerol) were again added and incubated for 1 hour. Subsequently, the culture supernatants were collected for analysis of lipid mediators. The experiments were replicated three times. […] The amounts of 5-HETE, LTB4, 12-HETE, 15-HETE and 17-HDOHE are measured by the use of an LC-MS/MS method using a UPLC system (Agilent LC1290 Infinity) coupled to an Agilent 6490 triple quadrupole mass spectrometer (Agilent Technologies) equipped with electrospray ionization operating in negative mode, and are expressed in picograms per culture well (pg/well). The values obtained were expressed as mean+/-sem [standard error of the mean=standard deviation/square root (number of values)]. For each condition, the percentages of activation were calculated as follows: % activation=[mean (condition)]/[mean (stimulated cells)]×100-100. • stimulated cells: PMA/A23187/PUFA-treated cells in the case where the condition studied is the treatment with glycerol. • stimulated cells: cells treated with PMA/A23187/PUFA+0.1% DMSO in the case where the condition studied is the treatment with the composition CA. The statistical analysis was carried out by a Student's test and a significance threshold was set at 5%, the conditions being compared in pairs. A difference between the effectiveness of two products was considered: • significant if p<0.05; • “at the limit of significance” if 0.05≤p<0.1; • and not significant if p>0.1.

[1] = 0.01%, PMA/A23187/PUFA-stimulated coculture supernatant, proresolving mediator
[2] = 0.01%, vs respective stimulated cells (PMA/A23187/PUFA for glycerol, + 0.1% DMSO for composition CA)
[3] = 0.05%, PMA/A23187/PUFA-stimulated NHEK/DC coculture supernatant, proinflammatory mediator
[4] = 0.05%, vs PMA/A23187/PUFA-treated cells

With `OCC(O)CO` [Glycerol] the “12-HETE (pg/well) Mean +/− SEM” value [1] was 15 +/− 1 pg/well, the “15-HETE (pg/well) Mean +/− SEM” value [1] was 273 +/− 26 pg/well and the “17-HDOHE (pg/well) Mean +/− SEM” value [1] was 16654 +/− 1409 pg/well. For the same compound, the 12-HETE % activation [2] was 58%^15, the 15-HETE % activation [2] was 63%* and the 17-HDOHE % activation [2] was “+13%”. For the same compound, the “5-HETE (pg/well) Mean +/− SEM” value [3] was 1152 +/− 201 pg/well, the “LTB4 (pg/well) Mean +/− SEM” value [3] was 400 +/− 38 pg/well and the 5-HETE % activation [4] was 144%*. It also gave an LTB4 % activation [4] of 88%*.
